Measured values published in patent US20050233467A1, “Visible wavelength fluorescent calcium indicators that are (i) leakage resistant and (ii) operate near membranes” (priority 2004, published 2005).

Tested on: myocytes of mouse small mesenteric arteries
Assay: Localization of dye in walls of mouse small mesenteric arteries (imaging)
Assay type: cell-based
Conditions: mouse small mesenteric artery wall, activated cells
Text: The plane is tangential to the artery, very close to the coverslip. The spindle-shaped cells run horizontally, the artery lumen runs vertically. […] The FLUO-MOMO images are quite bright because the cells have been activated and [Ca^2+] cyt has risen. […] (Photo courtesy of Dr. Blaustein of The University of Maryland Medical School.)

## CCN(CC)c1ccc(/C=C/C=C/C=C/c2cc[n+](CCC[N+](CC)(CC)CC)cc2)cc1.[Br-].[Br-] [FM4-64]
  localization of dye in the cell: localizes to the plasma membrane
